For test [1], the system named is CDC2 and phospho-CDC2 (Tyr15) in MCF-7 cells. The test is described as follows: Western blot analysis of CDC2 and p-CDC2 (Tyr15). It is filed as cell-based, human. Particulars: MCF-7, 25 µM, 48 and 72 h. The procedure: Total protein was extracted from harvested cell with Radioimmunoprecipitation assay (RIPA) buffer supplemented with phosphatase inhibitor cocktail (Roche, Canada) and the concentration was quantified by Bradford assay (Sigma, USA). Then, 100 μg of extracted protein was subjected to sodium dodecyl sulfate polyacrylamide gel electrophoresis (SDS-PAGE) (Bio-Rad, USA), transferred to nitrocellulose membrane, block with 0.5% skimmed milk overnight, washed with Tris-buffered saline tween (TBST) buffer and incubated with primary antibodies (anti-CDC2, anti-pCDC2 (Tyr15), anti-p53, and anti-β-actin at a dilution of 1:1000 (Abcam, USA) for 1 h. After that, membranes were washed, incubated with 1:5000 diluted goat anti-rabbit IgG H&L conjugated to […] (Abcam, USA) and developed under chemiluminescence condition (Super Signal West Pico, Pierce, USA) using the ChemiDoc XRS (Bio-Rad, USA). Differential level of evaluated protein in control and DK1 treated MCF-7 was calculated based on the bands intensity analyzed using the Quantity One 1D Analysis software (Bio-rad, USA).

The test system of test [2] is PLK1, p21 and WEE-1 expression in MCF-7 cells. Kind of test: qRT-PCR of cell cycle related genes. Particulars: MCF-7, 25 µM, qRT-PCR, p < 0.05.
The subject of the next test is HL-60 cells. Kind of test: MTT cell viability assay, HL-60. It counts as cell-based. Particulars: Homo sapiens, HL-60, MTT. The procedure: (§1) Promyelocytic leukemia HL60, hepatoblastoma HepG2, breast cancer MCF-7 and MDA-MB-231 cells were purchased from ATCC (USA) and cultured in RPMI-1640 media (Sigma, USA), supplemented with 10% fetal bovine serum (FBS) (PAA, USA). Normal epithelial MCF-10A cells (ATCC, USA) was maintain in DMEM-F12 (Sigma, USA) supplemented with hydrocortisone (0.5 μg/mL), insulin (10 μg/mL), human epidermal growth factor (hEGF) (20 ng/mL) (Sigma, USA) and 10% FBS (PAA, USA).
(§2) MTT cell viability assay was used to evaluate the effect of DK1 on viability of HL-60, HepG2, MCF-7, MDA-MB-231 and MCF-10A cells. Briefly, each type of cells (8 × 10^4cells/well) was seeded in 96-well plate in 37 °C CO2 incubator overnight. Then, DK1 was added at concentration ranging between 200 and 3.125 µM by twofold serial dilution. Untreated control was prepared simultaneously. After that, the cells were incubated for 24, 48 and 72 h at 37 °C in 5% CO2 incubator. After the incubation period, all well was added with 20 μL of MTT solution (5 mg/mL) and further incubated for 3 h. Subsequently, 170 μL of supernatant from each well was discarded, 100 μL of dimethyl sulfoxide (DMSO) was added to solubilize the purple formazan crystal and the absorbance was measured at a wavelength of 570 nm by Enzyme-linked immunosorbent assay (ELISA) plate reader (Bio-tek instruments, USA). All cell lines were assayed for three biological replicates each with triplicates. Percentage of cell viability was calculated using the following formula: Cell viability%=OD sample/OD control×100%
(§3) IC50 value (concentration of DK1 that reduce 50% of cell viability compared to control cell) was determined from the graph of cell viability (%) vs DK1 concentration. Subsequently, selective index, which indicating selectivity of DK1 against cancerous and normal breast cell lines, was calculated by: Selective indexSI=IC50of DK1on normal MCF-10A cell line/IC50on breast cancerous cell lineHL60/HepG2/MCF-7/MDA-MB-231

For the next test, the system named is GSH in MCF-7 cells. The test is described as follows: Intracellular glutathione (GSH) quantification. It is filed as cell-based, human. The conditions noted are these: MCF-7, 25 µM. The procedure:
(§4) Harvested cell was subjected to two times of freeze and thaw in 100 μL of PBS. The lysed cell was then pelleted and the supernatant was subjected to GSH and ROS quantification using Glutathione assay kit (Sigma, USA) and OxiSelect ROS assay kit (Cell Biolabs, USA) according to manufacturers’ protocol.
(§5) For GSH quantification, 10 μL of cell lysate supernatant was added with 150 μL of working solution (1.5 mg/mL DTNB solution, 6 units/mL glutathione reductase and 1× assay buffer), incubated for 5 min and added with 50 μL of NADPH solution (0.16 mg/mL). The absorbance was read at a wavelength of 412 nm by ELISA plate reader (Bio-Tek instrument, USA) for every minute in duration of 5 min. For intracellular ROS quantification, supernatant was added with 10 μM DCFH-DA for 30 min at 37 °C. Then, the fluorescence intensity of DCFH-DA was measured using microplate fluorometer (Thermo Scientific, USA) with a 485/538 nm filter. Fold change of GSH and ROS was calculated by dividing absorbance or fluorescence intensity of DK1 treated MCF-7 with untreated control MCF-7.

The next test relates to MCF-10A cells. The test is described as follows: MTT cell viability assay, normal MCF-10A. It is filed as cell-based. Particulars: Homo sapiens. The procedure:
as §1, §2, §3

The subject of the next test is ROS in MCF-7 cells. Kind of test: Intracellular reactive oxygen species (ROS) detection, DCFH-DA. It is filed as cell-based, human. The conditions noted are these: MCF-7, 25 µM. The procedure:
as §4, §5

The test system of a further test is MCF-7 cells. The test is described as follows: Flow cytometry AnnexinV-FITC/PI apoptosis analysis. It counts as cell-based, human. The conditions noted are these: MCF-7, 25 µM, 72 h, AnnexinV/PI. The procedure: Apoptosis of DK1 treated MCF-7 was compared with the control cell by Flow cytometry AnnexinV-FITC/PI apoptosis assay. Briefly, harvested cells were resuspended in 100 μL of 1× binding buffer and stained with 5 μL each of AnnexinV-FITC and propidiumiodide. After 15 min of incubation, the cells were added with 400 μL of 1× binding buffer and subjected to BD FACS Calibur flow cytometer analysis using BD Cell Quest Pro software (Becton–Dickinson, USA).

Another test has as its system MDA-MB-231 cells. The test is described as follows: MTT cell viability assay, MDA-MB-231. It is filed as cell-based, human. The conditions noted are these: for IC50: Homo sapiens, MDA-MB-231, MTT. The procedure: as §1, §2, §3

On to `O=C(/C=C(\O)c1ccccc1)c1ccccc1O` [DK1, (Z)-3-hydroxy-1-(2-hydroxyphenyl)-3-phenylprop-2-en-1-one], for which the CDC2 protein level result in test [1] is listed as “reduction”. In addition, the “phospho-CDC2 (Tyr15) protein level” value in test [1] is recorded as “accumulation”. Moreover, the “expression of PLK1 compared to control” value in test [2] was “downregulated”. Also, in test [2], the “expression of WEE-1 compared to control” value is recorded as “enhanced”. In addition, in test [2], the “expression of p21 compared to control” value was “enhanced”. Further, the half-inhibitory concentration (IC50) with HL-60 cells (24 h) is 138 ± 2.16 µM; with HL-60 cells (48 h) it was 124 ± 3.27 µM; in the test with HL-60 cells (72 h), 73.4 ± 2.65 µM; in the test with MCF-10A cells (24 h), above 208 µM; in the test with MCF-10A cells (48 h) it was 126 ± 3.67 µM; in the test with MCF-10A cells (72 h), 104 ± 5.21 µM. Moreover, the IC50 turned out to be 104 ± 5.23 µM with MDA-MB-231 cells (24 h), 45.8 ± 4.66 µM with MDA-MB-231 cells (48 h) and 37.5 ± 4.82 µM in the test with MDA-MB-231 cells (72 h). Besides, the “reduction of GSH level compared to control” value in the test with GSH in MCF-7 cells (48 h) is given as ~ 2.2 fold; in the test on GSH in MCF-7 cells (72 h), ~ 3.3 fold. For the same molecule, the “generation of ROS compared to control” value is on record as ~ 1.9 fold in the test on ROS in MCF-7 cells (48 h) and ~ 2.6 fold in the test on ROS in MCF-7 cells (72 h). The early apoptosis in the test on MCF-7 cells was ~ 14%. Also, the late apoptosis in the test with MCF-7 cells was ~ 39%. Also, the “Selective index of MCF-10A/MDA” value is above 2.00 with MDA-MB-231 cells (IC50 MCF-10A / IC50 MDA-MB-231, 24 h); 2.72 in the test with MDA-MB-231 cells (IC50 MCF-10A / IC50 MDA-MB-231, 48 h); 2.77 with MDA-MB-231 cells (IC50 MCF-10A / IC50 MDA-MB-231, 72 h). Moreover, the SI values entry with MDA-MB-231 cells (MDA-MB-231, overall statement) is reported as “higher than 2”.

The record behind these values is paper PMC5320730, “Synthetic curcumin derivative DK1 possessed G2/M arrest and induced apoptosis through accumulation of intracellular ROS in MCF-7 breast cancer cells” (Cancer Cell International, 2017).
